These results are taken from US11357766B2, “Compositions and methods for treating cancer” (Texas Tech University System, priority 2017, dated 2022).

One series has as its system pancreatic cancer cells. Briefly: Glycolysis, mitochondrial respiration and marker expression in pancreatic cancer cells. The series is classed as cell-based.
The subject of another series is PANC1 cells. Description: AnnexinV/FITC apoptosis assay. Conditions: 48 hours. The series is classed as cell-based, human. The procedure:
(§1) Briefly, the following cells were treated at 0.2×10^6, in FIG. 2A AsPC1 cells, FIG. 2B BxPC3 cells, and in FIG. 2C PANC1 cells, which were plated and treated with 5, 7.5 and 10 μM pimavanserin tartrate for 48 hours. Percent apoptotic cells was evaluated by AnnexinV/FITC apoptosis assay using Accuri C6 flow cytometer. Studies were repeated independently 3 times.
(§2) AnnexinV/FITC apoptosis assay. The effects of pimavanserin in inducing apoptosis were assessed by AnnexinV/FITC apoptosis assay. The assay was performed by FITC AnnexinV apoptosis detection kit (BD biosciences, San Jose, Calif., USA). Briefly, 0.2×10^6 pancreatic cancer cells were plated in each well of 6-well plate and incubate overnight for the cells to attach. The cells were then treated with varying concentrations of pimavanserin tartrate. After 48 hours, cells were trypsinized and suspended in PBS. Cells were washed and re-suspended in 150 μl of annexin binding buffer. The cells were then stained with 4 μl AnnexinV FITC and 4 μl propidium iodide for 20 minutes in dark. Post incubation, the volume was adjusted to 350 μl by adding annexin binding buffer. Samples were then analyzed by flow cytometer (Accuri C6, AnnArbor, Mich., USA) as previously described by the present inventors (7).
(§3) Pimavanserin induces apoptosis in pancreatic cancer cells. In order to determine the mechanism of anti-proliferative effects of pimavanserin tartrate, apoptosis induction by pimavanserin tartrate treatment was determined in AsPC1, BxPC3 and PANC1 pancreatic cancer cells by AnnexinV/FITC assay using flow cytometer. […] Treatment of AsPC1 and BxPC3 cells with 7.5 μM pimavanserin caused 2-fold increase in apoptotic cells (FIG. 2A, 2B), whereas in PANC1 cells, a 4-fold increase in apoptotic cells was observed (FIG. 2C). […] Induction of apoptosis by pimavanserin treatment in AsPC1, BxPC3 and PANC1 cells was confirmed by cleavage of caspase 3 (FIGS. 3A-3C).

The next series has as its system BxPC3 cells. Description: AnnexinV/FITC apoptosis assay. Conditions: 48 hours. The series is classed as cell-based, human. As to the method:
as §1, §2, §3

In the next series the test system is AsPC1 cells. Briefly: AnnexinV/FITC apoptosis assay. Type of series: cell-based, human. Conditions: 7.5 μM, 48 hours. As to the method:
as §1, §2, §3

Series [1] concerns behavioral activity of mice. Description: Mice behavioral analysis (Versamax). Conditions: after 67 days of 10 mg/kg; mice bearing orthotopic pancreatic tumors. Type of series: in vivo. The procedure:
In orthotopic experiment, behavioral activity was measured using Versamax (Accuscan instruments) after 67 days of oral administration of 10 mg/kg pimavanserin tartrate. The following were measured, in FIG. 6A total distance; FIG. 6B horizontal activity' FIG. 6C vertical activity; and FIG. 6D ambulatory activity. Values are plotted as mean±SEM.
Mice behavioral analysis. In orthotopic studies, the behavioral activity of mice was analyzed after chronic administration of pimavanserin tartrate for […]. The behavioral analysis was performed by Versamax (Accuscan Instruments Inc., Columbus, Ohio, USA) as previously described by the present inventors (7, 12).
Pimavanserin tartrate is an anti-psychotic drug used for the treatment of Parkinson disease. Owing to its action on the central nervous system, the behavioral activity of mice after long-term pimavanserin tartrate administration was assessed. The behavioral activity of mice was monitored after 67 days of 10 mg/kg pimavanserin treatment using Versamax (Accuscan Instruments Inc.).

As for `CC(C)COc1ccc(CNC(=O)N(Cc2ccc(F)cc2)C2CCN(C)CC2)cc1` [pimavanserin, N-(4-fluorophenylmethyl)-N-(1-methylpiperidin-4-yl)-N′-(4-(2-methylpropyloxy)phenylmethyl)carbamide], the “cleavage of caspase3 and PARP” value in the series on pancreatic cancer cells (Western blot) is reported as “increasing”. Further, the “expression of main metabolic markers Hexokinase-1, LDH-A and FOXM1” value in the series on pancreatic cancer cells (Western blot) is “inhibits”. The “glycolysis and mitochondrial respiration” value with pancreatic cancer cells (pancreatic cancer cells) is “inhibits”. Also, the “key oncogenic markers pAkt(S473), pSTAT3 (Y705 & S727), β-catenin, Cyclin D1, Mc1-1, HER2, EGFR, VEGFR2, c-Myc, CD44, Oct-4” value in the series with pancreatic cancer cells (pancreatic cancer cells) was “inhibiting”. Further, the “increase in apoptotic cells” value is given as 4 fold in the series on PANC1 cells (7.5 μM); 5 fold in the series on PANC1 cells (10 μM); 2 fold with BxPC3 cells (7.5 μM); 5 fold with BxPC3 cells (10 μM); 2 fold in the series with AsPC1 cells. Further, the “behavioral activity parameters (total distance, horizontal, vertical and ambulatory activity) vs control” value in series [1] was “did not change”.
